According to US10294272B2, “Peptides with antagonistic activities against natural CXCR4” (Pharis Biotec GmbH, priority 2013, dated 2019):
No end group written: not given here.

Columns and labels:
CD34+ human stem cells = assay: CXCL12-induced migration of CD34+ human stem cells; assay type: cell-based
Experimental: Peripheral hematopoietic stem (PHS) cells isolated by apheresis of Granulo-cyte colony-stimulating factor (G-CSF) treated individuals were obtained from the Institute of Transfusion Medicine, University Hospital Ulm). Frozen cells were carefully thawed in 1/10 diluted 10% ACD-A buffer (provided by the Institute of Transfusion Medicine) in PBS. 1×10^5/200 μl PHS cells were placed into the upper chamber of transwell plates. Then, 10 nM CXCL12 and/or various concentrations of the peptide of SEQ ID NO 16 or its derivatives in 600 μl culture medium were placed to each well. After 3 h, the chemotaxis was measured using the CellTiter-Glo Luminescent Cell Viability Assay as described above. All values represent mean numbers of migrated cells relative to CXCL12 only treated cells from a triplicate experiment±SD.

CXCR4 [1] = target: T1, CXCR4 (Mus musculus, UniProt P70658); assay: Progenitor cell mobilization in mice; assay type: in vivo; conditions: single i.p. administration
T1 construct: from tissue; host or cells: live mice (C57Bl/6J for mobilization)
Experimental: C57B1/6J mice (Janvier, Le Genest St. Isle, F R) were housed in the conventional vivarium of the Goethe-University Medical Center, Frankfurt, with food and water ad libitum. Mice received i.p. injections of 200 μL water or normal saline containing 10 mg/mL the peptide of SEQ ID NO 16. Blood was drawn at the indicated times following injection from the check pouch after careful skin disinfection. After hypotonic lysis, leukocytes were incubated in duplicate in cytokine-replete commercially available semi-solid media (3434, Stem Cell Technologies, Vancouver, B C) under standard conditions. CFU—C were scored on day 7, as described (Bönig et al., 2006). CFU—C were normalized to the blood volume incubated. All animal studies were done with permission of the local IACUC, in agreement with AAALAC guidelines.

CXCR4 [2] = target: T2, CXCR4 (Homo sapiens, UniProt P61073); assay: Competition with CXCL12 binding to CXCR4 (real-time fluorescence, eGFP-CXCR4 cells); conditions: read-out: dissociation constant (DC50), competition with CXCL12 binding to CXCR4
T2 construct: expressed in transfected cells
Experimental: Anti-human CXCR4 (clone 12G5, IgG2a) or anti-human CXCR7 (clone 9C4) monoclonal antibodies (mAbs) were purchased from R&D Systems (Minneapolis, Minn.). […] The human chemokines CXCL12 and CXCL12-TexasRed were synthesized as described (Valenzuela-Fernandez, et al. 2001). The human chemokine CXCL11 was purchased from Clinisciences SAS (France).
Experiments were performed using cells stably expressing eGFP-CXCR4, suspended in HEPES-bovine serum albumin buffer (10 mM HEPES, 137.5 mM NaCl, 1.25 mM MgCl2, 1.25 mM CaCl2, 6 mM KCl, 10 mM glucose, 0.4 mM NaH2PO4, 0.1% bovine serum albumin (w/v), pH 7.4) (typically at 10^6 cells/mL). Time-based recordings of the fluorescence emitted at 510 nm (excitation at 470 nm) were performed at 21° C. using a spectrofluorimeter and sampled every 0.3 s. Fluorescence binding measurements were initiated by adding at 30 s 100 nM of CXCL12-TR to the 1 mL cell suspension. For competition experiments, EGFP-CXCR4 expressing cells were preincubated for 10 min in the absence or presence of various concentrations of unlabelled drugs. Then, CXCL12-TR (100 nM) was added and fluorescence was recorded until equilibrium was reached (300 s). Data were analyzed using Kaleidagraph 3.08 software (Synergy Software, Reading, Pa., USA).

[3] = system: TZM-bl cells or prestimulated PBMCs
Experimental: To assess cytotoxic effects TZM-bl cells or prestimulated PBMCs were incubated with increasing concentrations of peptides. Cell viability was determined using the CellTiter-Glo Luminescent Cell Viability Assay (PROMEGA, G7571) as recommended by the manufacturer. Values were derived from triplicate measurements. Vitality rates were calculated relative to ATP levels in PBS (no peptide) containing cells (100%). Data were recorded using a luminometer 10 minutes after adding reagent.

[4] = Transplantation of mobilized cells; assay type: in vivo
Experimental: […] animals were injected with the peptide of SEQ ID NO 16 (2 mg i.p in saline) or controls saline. Peripheral blood was individually harvested 1 hour post injection, counted, combined and competitively transplanted (660 μl blood equivalent) alongside 4×10^5 C57BL/6 CD45.1 BM cells into C57BL/6 Cd45.1 recipients.

CXCR4 [5] = target: T1, CXCR4; assay: Asthma mouse model (OVA challenge); assay type: in vivo; conditions: mice, i.p., allergen challenge with OVA
Experimental: Mice were sensitized by intraperitoneal (i.p.) injection on days 0, 1 and 2 of 50 μg ovalbumin (OVA, Sigma-Aldrich, A5503) adsorbed on 2 mg aluminium hydroxide (Sigma-Aldrich, 23918-6) in saline. Mice were challenged by intranasal (i.n.) instillation of 10 μg OVA in 25 μl saline (12.5 μl/nostril) or saline alone for control mice on days 5, 6 and 7 under anesthesia (50 mg/kg ketamine and 3.3 mg/kg xylazine, i.p.). the peptide of SEQ ID NO 16 or ALB409-423 in saline were administered i.p. (16 μmol/kg) two hours before each OVA challenge. Bronchoalveolar lavage (BAL) and differential cell counts were performed 24 h after the last OVA challenge as previously reported in (Rebber et al., 2012).

DU145 cells = assay: Cancer cell invasion assay; assay type: cell-based
Experimental: Cell invasion of cancer cells was assayed using a Biocoat Matrigel invasion chamber (BD BioCoat™ Matrigel™ Invasion Chamber) as recommended by the manufacturer. 5×10^4 DU145 cells (ATCC) were suspended in 300 μl serum-free RPMI (Gibco) containing 0.1% BSA (KPL) and then added to the upper chamber. 700 μl serum-free medium with or without 100 nM CXCL12 and various concentrations of the peptide of SEQ ID NO 16 were added to each lower chamber. The chambers were incubated for 24 h at 37° C. in a humid atmosphere of 5% CO2/95% air. The non-invading cells were removed from the upper surface of the membrane by scrubbing. Invaded cells toward the bottom of membrane were quantified using the CellTiter-Glo® Luminescent Cell Viability Assay kit as described above.

T1 sequence (P70658 whole entry): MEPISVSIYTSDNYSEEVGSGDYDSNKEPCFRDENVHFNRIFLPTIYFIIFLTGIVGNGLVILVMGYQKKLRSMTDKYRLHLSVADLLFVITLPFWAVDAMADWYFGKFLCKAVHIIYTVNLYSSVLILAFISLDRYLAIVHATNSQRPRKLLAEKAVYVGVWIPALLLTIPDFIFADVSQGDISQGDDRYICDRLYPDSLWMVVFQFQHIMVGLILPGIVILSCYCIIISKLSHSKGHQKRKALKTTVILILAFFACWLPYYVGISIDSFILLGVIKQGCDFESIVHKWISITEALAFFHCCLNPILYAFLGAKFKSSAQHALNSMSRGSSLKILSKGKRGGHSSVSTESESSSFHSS
T2 sequence (P61073 whole entry): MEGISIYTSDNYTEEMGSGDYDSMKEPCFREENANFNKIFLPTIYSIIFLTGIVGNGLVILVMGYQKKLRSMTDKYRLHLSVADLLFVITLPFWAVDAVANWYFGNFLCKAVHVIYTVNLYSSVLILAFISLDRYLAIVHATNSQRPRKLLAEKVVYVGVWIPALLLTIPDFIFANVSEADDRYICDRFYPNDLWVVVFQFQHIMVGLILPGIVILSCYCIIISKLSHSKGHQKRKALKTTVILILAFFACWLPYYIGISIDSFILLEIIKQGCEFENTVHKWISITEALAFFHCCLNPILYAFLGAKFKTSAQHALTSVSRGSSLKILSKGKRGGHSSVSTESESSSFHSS

Sequence: LVRYTKKVPQVSTPTL [Derivative 408-423, LVRYTKKVPQVSTPTL]
- CXCL12-induced migration of CD34+ human stem cells (CD34+ human stem cells): suppressed
- mobilization of progenitor cells and neutrophils into the periphery (CXCR4 [1]): significant mobilization
- DC50 (CXCR4 [2]): 8 ± 3 µM
- cytotoxic effects [3]: did not display cytotoxic effects
- engraftment rates after transplantation of cells from treated mice [4]: increased engraftment rates
- CXCR4-dependent infiltration of neutrophils, lymphocytes and eosinophils into the airways (CXCR4 [5]): significantly reduced
- infiltration of macrophages (CXCR4 [5]): markedly reduced
- tumor cell invasion in vitro (DU145 cells): prevented
